Measurements published in patent EP0497921B1, “METHOD FOR INHIBITING ENZYMATIC SYNTHESIS OF NUCLEIC ACIDS USING ISOPSORALENS” (ISAACS, Stephen T., priority 1989, dated 1991).
Marks after values point to notes of the source that are not given here.

Key:
[1] = Solubility of photoreactive compounds in 1 X TE (optical density of filtrate); assay type: physicochemical; details: 1 x te
Procedure: The solubilities of AMIP, AMDMIP, DMIP, MIP and isopsoralen (IP) were determined experimentally according to the scheme set forth in Figure 5. To perform the solubility measurement, it was first necessary to establish known optical densities for a 1 µg/ml solution of each compound. These were determined by preparing either ethanolic or aqueous stocks of each compound at known concentrations in 1 x TE, then measuring the optical density of each solution. From this information, the absorption of a 1 µg/ml solution was computed. Alternatively, the extinction coefficient may be thus determined and used in the same fashion. In this manner, the following absorption data was collected:
Following this step, undissolved compound was removed by filtration using a 0.2 u nylon-66 syringe filter (Arco LC13; Gelman). The concentration of the remaining soluble compound was then determined by measuring the optical density of the filtrate and computing the solubility from the known optical density of a 1 µg/ml solution of that compound. The solubility of the compounds was thus determined to be as follows: […]

calf thymus DNA = experiment: Binding of photoproduct to nucleic acid in the dark (DNA-associated tritium counts); details: no device, no irradiation
Procedure: The nucleic acid binding properties of photoproduct were investigated with calf thymus DNA. 200 µg/ml of ^3H-AMDMIP (1 x 10^5 CPM/ml) in Taq buffer was irradiated at room temperature with either the CE-III device or the PTI device. This irradiation was performed for 15 minutes in the absence of nucleic acid. Following the irradiations, 200 µl of the irradiated solution was mixed with 200 µl of 1000 µg/ml DNA solution in Taq buffer. Several identical samples were prepared in this manner. one set of samples was allowed to react with the DNA for 2 hours at room temperature. The other set of samples was subjected to 30 cycles of heating and cooling by placing the samples in a thermal cycler [Perkin-Elmer Cetus DNA Thermal Cycler (Part No. N8010150); each cycle involved 93°C for 30 seconds, 55°C for 30 seconds and 72°C for 1 minute]. When the DNA reactions were complete, all samples were analyzed for DNA-associated tritium counts (CPM) by following the flow chart outlined in FIgure 17.
For calculation purposes, these adducts are reported as if they represented monomers of AMDMIP. Regardless of the accuracy of this approximation, the process of irradiating ^3H-AMDMIP clearly results in a tritiated product which associates (i.e. binds) with DNA in the absence of subsequent activating wavelengths of electromagnetic radiation. […]

115-mer = experiment: Crosslinkable Oligonucleotide Probe Analysis (COP) of sterilized PCR product; assay type: biochemical, HIV
Source text: Because of this, these isopsoralen-modified single strands should remain detectable by hybridization procedures. […] Preparation of Samples: The HIV 115-mer system with primers SK-38/SK-39 was used for the experiment (see Figure 36, "HIV Oligonucleotide System"). Two types of starting template were used: previously amplified 115-mer or genomic DNA, isolated from an individual known to be infected with HIV (MACS sample). For previously amplified 115-mer between 10^5 and 10^6 copies were used for starting template. For the genomic (MACS) sample, approximately 1 µg (3 x 10^5 copies) of genomic DNA were used. Two PCR samples were prepared for each type of template then amplification was carried out for either 20 or 30 cycles. One of the two PCR samples contained AMDMIP at 200 µg/ml while the other was AMDMIP free. Following amplification, the AMDMIP containing samples were divided and half were irradiated. Analysis (OH or COP) was then done on the three samples from each set (AMDMIP free, AMDMIP unirradiated, and AMDMIP irradiated) for each cycle number. The AMDMIP free samples served as control, the AMDMIP unirradiated sampes adressed the effect of non-covalently bound AMDMIP on detection, and AMDMIP irradiated samples addressed the effect of covalently bound AMDMIP on detection.
COP and OH assays were performed a follows. 10 µl of the PCR reaction mixture was added to 3.3 µl of "probe mix" [5'-labelled SK-19 (normal or monoadducted) at 10^-8 M containing EDTA and an appropriate salt mixture], overlaid with 30-40 µl of light mineral oil, then heated to 95-100°C for 5 minutes. For COP, the hybridization mixture as placed in the PTI device at 56°C and irradiated for 15 minutes. Following this, loading dyes (containing urea or formamide) were added, the sample heated to 95-100°C for 5 minutes, quick chilled on wet ice, then loaded on a denaturing PAGE gel followed by electrophoresis under denaturing conditions. For OH reactions, the hybridization mixture was incubated at 56°C for 30 minutes, loading dyes added, and aliquots loaded directly into a native PAGE gel followed by electrophoresis under native conditions. 1. Samples 1-6 contain previously amplified 115-mer that was re-amplified either 20 (samples 1,3,5) or 30 (Samples 2,4,6) cycles then detected by COP. Samples 1 & 2 are controls (without AMDMIP); samples 3 and 4 are (with AMDMIP and with light) sterilized samples; samples 5 & 6 are (with AMDMIP but without light) controls. The bands corresponding to amplified 115-mer crosslinked to labelled 41-mer probe (SK-19 MA) are the upper bands in Figure 46. Samples 11-16 are the same series except the MACS sample was used as template.

[2] = system: DNA polymerase I from E. coli. B; details: Piette and Hearst 1983; nick-translating a double-stranded template; cited from earlier work
[3] = Sample 4: previously amplified 115-mer, 30 cycles, with AMDMIP and with light
[4] = Sample 5: previously amplified 115-mer, 20 cycles, with AMDMIP but without light
[5] = Sample 6: previously amplified 115-mer, 30 cycles, with AMDMIP but without light
[6] = Sample 13: MACS genomic template, 20 cycles, with AMDMIP and with light
[7] = Sample 14: MACS genomic template, 30 cycles, with AMDMIP and with light
[8] = Sample 15: MACS genomic template, 20 cycles, with AMDMIP but without light
[9] = Sample 16: MACS genomic template, 30 cycles, with AMDMIP but without light

5-Aminomethylisopsoralen [AMIP]
Solubility in 1 X TE [1]: 21,000 µg/ml

4'-Aminomethyl-4,5'-dimethylisopsoralen [AMDMIP]
Solubility in 1 X TE [1]: > 22,700 * µg/ml
ADDUCTS PER (calf thymus DNA; dark reaction Room Temp. (2 hours)): 1.1
ADDUCTS PER (calf thymus DNA; dark reaction Thermally Cycled (30 cycles)): 0.9
CPM (115-mer; Sample 3: previously amplified 115-mer, 20 cycles, with AMDMIP (200 µg/ml) and with light): 1944 CPM
CPM (%) relative to sample without AMDMIP (115-mer; Sample 3: previously amplified 115-mer, 20 cycles, with AMDMIP and with light): 62%
CPM (115-mer; [3]): 36452 CPM
CPM (%) relative to sample without AMDMIP (115-mer; [3]): 83%
CPM (115-mer; [4]): 4480 CPM
CPM (%) relative to sample without AMDMIP (115-mer; [4]): 144%
CPM (115-mer; [5]): 39596 CPM
CPM (%) relative to sample without AMDMIP (115-mer; [5]): 90%
CPM (115-mer; [6]): 460 CPM
CPM (%) relative to sample without AMDMIP (115-mer; [6]): 52%
CPM (115-mer; [7]): 41777 CPM
CPM (%) relative to sample without AMDMIP (115-mer; [7]): 78%
CPM (115-mer; [8]): 464 CPM
CPM (%) relative to sample without AMDMIP (115-mer; [8]): 53%
CPM (115-mer; [9]): 35176 CPM
CPM (%) relative to sample without AMDMIP (115-mer; [9]): 66%

Cc1cc2occc2c2oc(=O)ccc12 [MIP, 5-Methylisopsoralen]
inhibition of E. Coli polymerase I by covalently bound monoadducts [2]: not inhibited
